≈ marks a conversion by molar mass, not a printed value. Structures can show the parent of a compound that is named as a salt. Where two headings read alike, the source gives them in different places.
Experiments:
Experiment in all cases: Antibacterial activity, microbroth dilution method (MIC)
[1] = test system: Gram-positive Staphylococcus aureus (S. aureus) 29213; type: cell-based; details: Staphylococcus aureus, Gram-positive S. aureus 29213
Description: (§1) The antibacterial activity from a microbroth dilution method may be presented as the minimum inhibitory concentration (MIC in μg/mL). The MIC value is the lowest concentration of drug which prevents macroscopically visible growth under test conditions.
(§2) Antibacterial activity of test compounds against the super sensitive Gram-negative Escherichia coli (E. coli) BAS849 bacterium, the control Gram-negative E. coli 25922 strain and the Gram-positive Staphylococcus aureus (S. aureus) 29213 bacterium are shown in Table 1.

[2] = test system: super sensitive Gram-negative Escherichia coli (E. coli) BAS849; type: cell-based; details: Escherichia coli, read-out: MIC, E. coli BAS849
Description: as §1, §2

[3] = test system: control Gram-negative E. coli 25922 strain; type: cell-based, Escherichia coli; details: Escherichia coli
Description: as §1, §2

[4] = super sensitive Gram-negative E. coli BAS849, microbroth dilution

SMILES | MIC [1] [µg/mL] | MIC [2, 4] [µg/mL] | MIC [3] [µg/mL] | MIC [2] [µg/mL]
Cn1ccc2cc3c(cc21)OCCc1c-3[nH]c(=O)c(C(=O)O)c1O [Cpd 87, 4-hydroxy-9-methyl-2-oxo-2,5,6,9-tetrahydro-1H-pyrido[2′,3′:4,5]oxepino[3,2-f]indole-3-carboxylic acid] | 12.5 to 150 (≈ 38.3 to 460 µM) | < 1 | 3.5 to 12.5 (≈ 10.7 to 38.3 µM) | –
CC(C)NCc1cc2cc3c(cc2n1C)NCCc1c-3[nH]c(=O)c(C(=O)O)c1O.Cl [Cpd 101, 4-hydroxy-10-((isopropylamino)methyl)-9-methyl-2-oxo-1,2,5,6,7,9-hexahydropyrido[2′,3′:4,5]azepino[3,2-f]indole-3-carboxylic acid hydrochloride] | 12.5 to 150 | 1 to 3.5 | 3.5 to 12.5 | –
CC(C)NCc1cc2cc3c(cc2n1C)CCCc1c-3[nH]c(=O)c(C(=O)O)c1O.Cl [Cpd 26, 4-hydroxy-10-((isopropylamino)methyl)-9-methyl-2-oxo-1,2,5,6,7,9-hexahydropyrido[3′,2′:6,7]cyclohepta[1,2-f]indole-3-carboxylic acid hydrochloride] | 3.5 to 12.5 | < 1 | < 1 | –
CCNCc1cc2cc3c(cc2n1C)CCCCc1c-3[nH]c(=O)c(C(=O)O)c1O.Cl [Cpd 59, 11-((ethylamino)methyl)-4-hydroxy-10-methyl-2-oxo-2,5,6,7,8,10-hexahydro-1H-pyrido[3′,2′:7,8]cycloocta[1,2-f]indole-3-carboxylic acid hydrochloride] | 3.5 to 12.5 | < 1 | < 1 | –
CN(C)Cc1cc2cc3c(cc2n1C)OCCc1c-3[nH]c(=O)c(C(=O)O)c1O.Cl [Cpd 173, 10-((dimethylamino)methyl)-4-hydroxy-9-methyl-2-oxo-2,5,6,9-tetrahydro-1H-pyrido[2′,3′:4,5]oxepino[3,2-f]indole-3-carboxylic acid hydrochloride] | 12.5 to 150 | < 1 | < 1 | –
CCNCc1cc2cc3c(cc2n1C)CCCc1cc(C(=O)O)c(=O)[nH]c1-3.Cl [Cpd 54, 10-((ethylamino)methyl)-9-methyl-2-oxo-1,2,5,6,7,9-hexahydropyrido[3′,2′:6,7]cyclohepta[1,2-f]indole-3-carboxylic acid hydrochloride] | 12.5 to 150 | < 1 | < 1 | –
Cl.Cn1c(CNCCO)cc2cc3c(cc21)OCCc1c-3[nH]c(=O)c(C(=O)O)c1O [Cpd 177, 4-hydroxy-10-(((2-hydroxyethyl)amino)methyl)-9-methyl-2-oxo-2,5,6,9-tetrahydro-1H-pyrido[2′,3′:4,5]oxepino[3,2-f]indole-3-carboxylic acid hydrochloride] | 12.5 to 150 | < 1 | 12.5 to 150 | –
COC1CCN(Cc2cc3cc4c(cc3n2C)CCCc2c-4[nH]c(=O)c(C(=O)O)c2O)C1.Cl (stereo not drawn) [Cpd 158, 4-hydroxy-10-((3-methoxypyrrolidin-1-yl)methyl)-9-methyl-2-oxo-1,2,5,6,7,9-hexahydropyrido[3′,2′:6,7]cyclohepta[1,2-f]indole-3-carboxylic acid hydrochloride] | 3.5 to 12.5 | < 1 | 1 to 3.5 | –
Cl.Cn1c(CN2CCC(O)C2)cc2cc3c(cc21)CCCc1c-3[nH]c(=O)c(C(=O)O)c1O (stereo not drawn) [Cpd 51, 4-hydroxy-10-((3-hydroxypyrrolidin-1-yl)methyl)-9-methyl-2-oxo-1,2,5,6,7,9-hexahydropyrido[3′,2′:6,7]cyclohepta[1,2-f]indole-3-carboxylic acid hydrochloride] | 3.5 to 12.5 | < 1 | 1 to 3.5 | –
Cl.O=C(O)c1c(O)c2c([nH]c1=O)-c1ccc(N3CCC4(CCNC4)C3)cc1CCC2 (stereo not drawn) [Cpd 122, 4-hydroxy-2-oxo-9-(2,7-diazaspiro[4.4]nonan-2-yl)-2,5,6,7-tetrahydro-1H-benzo[6,7]cyclohepta[1,2-b]pyridine-3-carboxylic acid hydrochloride] | 12.5 to 150 | 12.5 to 150 | 12.5 to 150 | –
C=CCNCc1cc2cc3c(cc2n1C)CCCc1c-3[nH]c(=O)c(C(=O)O)c1O.Cl [Cpd 153, 10-((allylamino)methyl)-4-hydroxy-9-methyl-2-oxo-1,2,5,6,7,9-hexahydropyrido[3′,2′:6,7]cyclohepta[1,2-f]indole-3-carboxylic acid hydrochloride] | 3.5 to 12.5 | < 1 | < 1 | –
CN(C)c1ccc2c(c1)CCc1cc(C(=O)O)c(=O)[nH]c1-2 [Cpd 1, 8-(dimethylamino)-2-oxo-1,2,5,6-tetrahydrobenzo[h]quinoline-3-carboxylic acid] | 12.5 to 150 (≈ 44 to 528 µM) | 3.5 to 12.5 (≈ 12.3 to 44 µM) | 12.5 to 150 (≈ 44 to 528 µM) | –
Cl.Cl.Cn1c(CNCCN)cc2cc3c(cc21)CCCc1c-3[nH]c(=O)c(C(=O)O)c1O [Cpd 144, 10-(((2-aminoethyl)amino)methyl)-4-hydroxy-9-methyl-2-oxo-1,2,5,6,7,9-hexahydropyrido[3′,2′:6,7]cyclohepta[1,2-f]indole-3-carboxylic acid dihydrochloride] | 12.5 to 150 | 3.5 to 12.5 | 12.5 to 150 | –
CCNCc1cc2cc3c(cc2n1C)CCCc1c-3[nH]c(=O)c(C(=O)O)c1O.Cl [Cpd 25, 10-((ethylamino)methyl)-4-hydroxy-9-methyl-2-oxo-1,2,5,6,7,9-hexahydropyrido[3′,2′:6,7]cyclohepta[1,2-f]indole-3-carboxylic acid hydrochloride] | 3.5 to 12.5 | < 1 | < 1 | –
CCNCc1cc2cc3c(cc2n1C)C(C)CCc1c-3[nH]c(=O)c(C(=O)O)c1O.Cl (stereo not drawn) [Cpd 63, 10-((ethylamino)methyl)-4-hydroxy-7,9-dimethyl-2-oxo-1,2,5,6,7,9-hexahydropyrido[3′,2′:6,7]cyclohepta[1,2-f]indole-3-carboxylic acid hydrochloride] | 12.5 to 150 | 1 to 3.5 | 3.5 to 12.5 | –
CC1Cc2cc(N3C[C@@H]4[C@@H](N)[C@@H]4C3)ccc2-c2[nH]c(=O)c(C(=O)O)c(O)c21 (stereo partly drawn) [Cpd 110, 8-((cis,cis)-6-amino-3-azabicyclo[3.1.0]hexan-3-yl)-4-hydroxy-5-methyl-2-oxo-1,2,5,6-tetrahydrobenzo[h]quinoline-3-carboxylic acid trifluoroacetate] | 12.5 to 150 | – | 12.5 to 150 | 3.5 to 12.5
Cl.Cn1c(CNCc2ccncc2)cc2cc3c(cc21)CCCc1c-3[nH]c(=O)c(C(=O)O)c1O [Cpd 39, 4-hydroxy-9-methyl-2-oxo-10-(((pyridin-4-ylmethyl)amino)methyl)-1,2,5,6,7,9-hexahydropyrido[3′,2′:6,7]cyclohepta[1,2-f]indole-3-carboxylic acid hydrochloride] | 3.5 to 12.5 | < 1 | 3.5 to 12.5 | –
CN1CCN(Cc2cc3cc4c(cc3n2C)CCCc2c-4[nH]c(=O)c(C(=O)O)c2O)CC1.Cl.Cl [Cpd 42, 4-hydroxy-9-methyl-10-((4-methylpiperazin-1-yl)methyl)-2-oxo-1,2,5,6,7,9-hexahydropyrido[3′,2′:6,7]cyclohepta[1,2-f]indole-3-carboxylic acid dihydrochloride] | 3.5 to 12.5 | < 1 | 3.5 to 12.5 | –
CNCc1cc2cc3c(cc2n1C)NCCCc1c-3[nH]c(=O)c(C(=O)O)c1O.Cl [Cpd 103, 4-hydroxy-10-methyl-11-((methylamino)methyl)-2-oxo-2,5,6,7,8,10-hexahydro-1H-pyrido[2′,3′:4,5]azocino[3,2-f]indole-3-carboxylic acid hydrochloride] | 12.5 to 150 | 1 to 3.5 | 12.5 to 150 | –
CNC1CCN(c2ccc3c(c2)CCCc2c-3[nH]c(=O)c(C(=O)O)c2O)C1.Cl (stereo not drawn) [Cpd 8, 4-hydroxy-9-(3-(methylamino)pyrrolidin-1-yl)-2-oxo-2,5,6,7-tetrahydro-1H-benzo[6,7]cyclohepta[1,2-b]pyridine-3-carboxylic acid hydrochloride] | 12.5 to 150 | 1 to 3.5 | 3.5 to 12.5 | –
COCCNCc1cc2cc3c(cc2n1C)OCCc1c-3[nH]c(=O)c(C(=O)O)c1O.Cl [Cpd 183, 4-hydroxy-10-(((2-methoxyethyl)amino)methyl)-9-methyl-2-oxo-2,5,6,9-tetrahydro-1H-pyrido[2′,3′:4,5]oxepino[3,2-f]indole-3-carboxylic acid hydrochloride] | 12.5 to 150 | < 1 | 1 to 3.5 | –
Cn1ccc2cc3c(c(F)c21)CCCc1c-3[nH]c(=O)c(C(=O)O)c1O [Cpd 18, 8-fluoro-4-hydroxy-9-methyl-2-oxo-1,2,5,6,7,9-hexahydropyrido[3′,2′:6,7]cyclohepta[1,2-f]indole-3-carboxylic acid] | 1 to 3.5 (≈ 2.92 to 10.2 µM) | < 1 | 3.5 to 12.5 (≈ 10.2 to 36.5 µM) | –
Cn1ccc2cc3c(cc21)CCCc1c-3[nH]c(=O)c(C(=O)O)c1O [Cpd 17, 4-hydroxy-9-methyl-2-oxo-1,2,5,6,7,9-hexahydropyrido[3′,2′:6,7]cyclohepta[1,2-f]indole-3-carboxylic acid] | 1 to 3.5 (≈ 3.08 to 10.8 µM) | < 1 | 1 to 3.5 (≈ 3.08 to 10.8 µM) | –
Cn1c2c(c(O)c(C(=O)O)c1=O)CCCc1cc3c(ccn3C)cc1-2 [Cpd 134, 4-hydroxy-1,9-dimethyl-2-oxo-1,2,5,6,7,9-hexahydropyrido[3′,2′:6,7]cyclohepta[1,2-f]indole-3-carboxylic acid] | 3.5 to 12.5 (≈ 10.3 to 36.9 µM) | < 1 | 12.5 to 150 (≈ 36.9 to 443 µM) | –
CCNCCc1cc2cc3c(cc2n1C)CCCc1c-3[nH]c(=O)c(C(=O)O)c1O.O=C(O)C(F)(F)F [Cpd 165, 10-(2-(ethylamino)ethyl)-4-hydroxy-9-methyl-2-oxo-1,2,5,6,7,9-hexahydropyrido[3′,2′:6,7]cyclohepta[1,2-f]indole-3-carboxylic acid trifluoroacetate] | 12.5 to 150 | – | 1 to 3.5 | < 1

Reference: patent US20150038438A1, “ANTIBACTERIAL COMPOUNDS AND METHODS FOR USE” (PTC THERAPEUTICS, INC., priority 2011, published 2015)
